{
  "source": "paper PMC6013220",
  "about": "“Activation of TREK currents by riluzole in three subgroups of cultured mouse nodose ganglion neurons” (PLoS ONE, 2018)",
  "key": {"human TRESK (KCNK18)": {"biological_target": "T1, human TRESK (KCNK18) (Homo sapiens, UniProt Q7Z418)", "T1 construct": "full-length cDNA in pcDNA3.1, co-transfected with separate GFP cDNA in tsA201 cells", "T1 sequence (Q7Z418 1-384)": "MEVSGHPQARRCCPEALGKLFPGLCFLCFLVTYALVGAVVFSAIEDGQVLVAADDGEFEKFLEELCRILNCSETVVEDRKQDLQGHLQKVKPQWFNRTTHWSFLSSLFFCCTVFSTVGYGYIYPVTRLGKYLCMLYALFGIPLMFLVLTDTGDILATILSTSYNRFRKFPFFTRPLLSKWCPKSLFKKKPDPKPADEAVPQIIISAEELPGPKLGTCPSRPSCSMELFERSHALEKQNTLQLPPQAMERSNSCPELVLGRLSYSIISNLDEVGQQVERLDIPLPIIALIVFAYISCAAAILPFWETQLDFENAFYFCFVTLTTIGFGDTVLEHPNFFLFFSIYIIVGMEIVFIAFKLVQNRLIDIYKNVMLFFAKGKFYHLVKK", "test": "whole-cell patch clamp, current at -40 mV", "type": "cell-based"}, "[1]": {"tested_on": "T2, TREK subfamily channels (TREK-1, TREK-2 and TRAAK)", "T2 construct": "gene Kcnk2; native channels in cultured nodose ganglion neurons; the authors argue mainly TREK-1, subtype not proven", "test": "whole-cell perforated patch clamp, outward current in native neurons", "type": "cell-based, Mus musculus", "settings": "activator, unreliable (extrapolated), holding -30 mV, blocker cocktail, room temperature"}},
  "data": [
    {"smiles": "Nc1nc2ccc(OC(F)(F)F)cc2s1", "note": "[riluzole]", "values": [
      {"measurement": "inhibition at 100 µM", "setting": "human TRESK (KCNK18)", "value": 64, "unit": "%"},
      {"measurement": "EC50", "setting": "[1]", "value": "392.2 ± 182.8", "unit": "µM"}
    ]}
  ]
}
